Laboratory results as given in patent publication US20090088463A1, “Pyrazoles Useful in the Treatment of Inflammation” (priority 2005, published 2009).
pIC50: −log10 of the molar value.

Each molecule was assayed against T1, purified human 15-lipoxygenase (Homo sapiens, UniProt P16050) (assay: 15-lipoxygenase inhibition assay (arachidonic acid oxidation, HPLC readout)). Settings: arachidonic acid substrate, room temperature.
T1 sequence (P16050 1-662): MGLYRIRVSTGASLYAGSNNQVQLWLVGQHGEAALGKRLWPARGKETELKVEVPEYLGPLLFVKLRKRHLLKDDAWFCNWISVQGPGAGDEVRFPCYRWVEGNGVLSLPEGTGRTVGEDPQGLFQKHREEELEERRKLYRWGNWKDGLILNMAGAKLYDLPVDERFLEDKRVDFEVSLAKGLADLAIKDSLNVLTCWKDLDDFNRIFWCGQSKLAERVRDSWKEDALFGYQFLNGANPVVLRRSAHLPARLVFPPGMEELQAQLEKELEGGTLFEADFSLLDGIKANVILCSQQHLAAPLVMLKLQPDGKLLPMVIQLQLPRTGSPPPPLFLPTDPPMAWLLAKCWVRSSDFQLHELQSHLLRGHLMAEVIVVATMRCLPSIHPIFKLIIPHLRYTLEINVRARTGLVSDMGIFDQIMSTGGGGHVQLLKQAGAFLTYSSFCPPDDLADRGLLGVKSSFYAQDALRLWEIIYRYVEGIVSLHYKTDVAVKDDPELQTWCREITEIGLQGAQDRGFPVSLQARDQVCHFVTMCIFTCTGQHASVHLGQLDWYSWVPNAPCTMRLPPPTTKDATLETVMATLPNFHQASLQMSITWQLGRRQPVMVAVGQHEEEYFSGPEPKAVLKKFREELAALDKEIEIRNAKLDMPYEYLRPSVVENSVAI
Assay type: biochemical
Protocol: The assay employed takes advantage of the ability of lipoxygenases to oxidize polyunsaturated fatty acids, containing a 1,4-cis-pentadiene configuration, to their corresponding hydroperoxy or hydroxyl derivatives. In this particular assay, the lipoxygenase was a purified human 15-lipoxygenase and the fatty acid was arachidonic acid. The assay is performed at room temperature (20-22° C.) and the following are added to each well in a 96-well microtiter plate:
a) 35 μL phosphate buffered saline (PBS) (pH 7.4); b) inhibitor (i.e. compound) or vehicle (0.5 μl DMSO); c) 10 μL of a 10× concentrated solution of 15-lipoxygenase in PBS. The plates are incubated for 5 minutes at room temperature; d) 5 μl of 0.125 mM arachidonic acid in PBS. The plate is then incubated for 10 minutes at room temperature; e) the enzymatic reaction is terminated by the addition of 100 μl methanol; and
f) the amount of 15-hydroperoxy-eicosatetraenoic acid or 15-hydroxy-eicosatetraenoic acid is measured by reverse phase HPLC.

Structure (SMILES) | pIC50
Cc1ccc(NC(=O)c2cc[nH]n2)c(C)c1 [Example 14, N-(2,4-Dimethylphenyl)pyrazole-3-carboxamide] | 6.08
O=C(Nc1cc(Cl)ccc1Cl)c1cc[nH]n1 [Example 13, N-(2,5-Dichlorophenyl)pyrazole-3-carboxamide] | 5.96
O=C(Nc1ccc(F)c(F)c1F)c1cc[nH]n1 [Example 7, N-(2,3,4-Trifluorophenyl)pyrazole-3-carboxamide] | 5.74
Cc1cc(Cl)ccc1NC(=O)c1cc[nH]n1 [Example 9, N-(4-Chloro-2-methylphenyl)pyrazole-3-carboxamide] | 6.12
O=C(Nc1ccc(OC(F)(F)F)cc1Br)c1cc[nH]n1 [Example 2, N-(2-Bromo-4-trifluoromethoxyphenyl)pyrazole-3-carboxamide] | 6.80
O=C(Nc1ccc(Br)cc1OC(F)(F)F)c1cc[nH]n1 [Example 15, N-(4-Bromo-2-trifluoromethoxyphenyl)pyrazole-3-carboxamide] | 6.85
